Assay results as given in patent publication US9678060B2, “Lunasin-induced regulation of disease-related gene expression” (THE REGENTS OF THE UNIVERSITY OF CALIFORNIA, priority 2007, dated 2017).

Legend:
[1] = target: T1, histone H4 N-terminal tail lysines acetylated by PCAF (Homo sapiens, UniProt P62805); assay: In vitro histone acetylation (HAT) assay, PCAF; type: biochemical; details: 2 μM lunasin
T1 construct: Acid extracted histones from untreated Hela cells; endogenous in cells; host or cells: HeLa
From the text: (§1) Inhibition of histone acetylation and hypoacetylated histones are by nature correlated with transcriptional silencing and downregulation of genes. How then can lunasin, which inhibits H3 and H4 N-terminal tail acetylation, act as a transcriptional activator? To answer this question, the inventors determined the effect of lunasin on the acetylation of specific lysine residues on the H4 N-terminal tail ([…]) using the PCAF, Hat1 and p300 histone acetylase enzymes and acid-extracted core histones as substrate.
(§2) Acid extracted histones from untreated Hela cells and purified recombinant histone H4 are used as templates in an in vitro histone acetylation (HAT) assay. Histone templates are pre-incubated in the presence or absence of 2 μM lunasin peptide for 30 min at RT before the addition of acetyl co-A, HAT reaction buffer and histone acetylase enzymes (p300, HAT1 and PCAF). HAT reaction mixture is incubated with shaking at 30° C. for 1 h before stopping the reaction by adding protein sample buffer and boiling for 5 min. Samples are run on 10-20% SDS-PAGE gels, blotted onto nitrocellulose membranes and immunostained with antibodies against histone H4 with specific N-terminal lysine acetylation sites at […], 8, 12 and 16. Densitometer readings are normalized using signals from untreated histone templates.

female SENCAR mice = details: topical application; cited from earlier work
[2] = tested on: H4-Lys16 acetylation at THBS gene promoter/CpG island; assay: PCR of ChIP DNA isolated with acetylated H4-Lys16 antibody; type: cell-based, human; details: lunasin-treated RWPE-1 (non-tumorigenic)
From the text: (§3) THBS contains a CpG island within its promoter which together with other chemopreventative genes and tumor suppressors are frequently found to be hypermethylated during cancer formation. Since DNA hypermethylation of CpG islands is associated with histone hypoacetylation, we wanted to determine if there is a loss of H4-Lys16 acetylation within this region of the gene by conducting PCR on chromatin immunoprecipitated (ChiP) DNA using acetylated H4-Lys16 antibody and primers derived from the promoter/CpG island and exon 11 of the thrombospondin gene. […] The loss of H4-Lys16 acetylation on CpG island of the THBS promoter in tumor prostate cells leads to the silencing of the THBS gene and the inability of lunasin to increase H4-Lys16 acetylation and upregulate expression in tumorigenic cell lines.
(§4) THBS protein levels were determined in RWPE-1 and -2 cell lines treated with or without lunasin. PCR was conducted on ChIP DNA isolated with acetylated H4-Lys16 antibody, using primers derived from the promoter and exon 11 of the THBS gene.

[3] = tested on: C3H 10T1/2 mouse embryo fibroblast cells; details: C3H/T101/2 cells pre-treated 24 hour with lunasin (as little as 125 nM), then DMBA and MCA; six weeks assay; cited from earlier work
thrombospondin (THBS) = assay: Western blot of THBS protein in RWPE-1 and RWPE-2 cells; type: cell-based, human
From the text: as §3, §4

[4] = tested on: UGT1A family of genes in HepG2 liver cells; assay: UGT1A expression in HepG2 cells (Western blot, RT-PCR); type: cell-based; details: 24 h
Procedure: HepG2 liver cells are grown in cell culture in the presence or absence of 10 uM lunasin peptide. After 24 h exposure, cells are harvested and total protein and RNA are harvested. Western blots are immunostained with UGT1A1 antibody and densitometer signals normalized using actin controls. […] Real-time quantitative RT-PCR will be conducted to measure differences in transcription levels.

[5] = target: T2, histone H4 N-terminal tail lysines acetylated by p300 (Homo sapiens, UniProt P62805); assay: In vitro histone acetylation (HAT) assay, p300; type: biochemical
T2 construct: Acid extracted histones from untreated Hela cells; endogenous in cells; host or cells: HeLa
From the text: as §1, §2

[6] = target: T3, histone H4 N-terminal tail lysines acetylated by Hat1 (Homo sapiens, UniProt P62805); assay: In vitro histone acetylation (HAT) assay, Hat1; type: biochemical
T3 construct: Acid extracted histones from untreated Hela cells; endogenous in cells; host or cells: HeLa
From the text: as §1, §2

[7] = tested on: E1A-transfected mouse fibroblast NIH 3T3 cells; details: E1A-transfected NIH 3T3 cells; cited from earlier work
deacetylated histone H4 = deacetylated histone H4 (Homo sapiens, UniProt P62805); assay: Binding to histone H4 (FIG. 8)
[8] = tested on: E1A-transfected C3H10T1/2 cells; details: cited from earlier work
[9] = tested on: tumorigenic prostate epithelial cell line (RWPE-2); assay: Microarray gene expression profile after 24 hour exposure to lunasin; type: cell-based, human
Procedure: (§5) In the present disclosure the investigators analyzed changes in gene expression profiles of normal (RWPE-1) and malignant (RWPE-2) prostate epithelial cell lines after 24 hour exposure to synthetic lunasin. Results disclosed herein support the anti-neoplastic property of lunasin and help elucidate its molecular mechanism. […] It is therefore reasoned that lunasin suppresses neoplastic transformation by up-regulating various genes.
(§6) To determine the genetic changes associated with lunasin treatment, the gene expression profiles of non-tumorigenic (RWPE-1) (SEQ ID No.2) and tumorigenic (RWPE-2) (SEQ ID No.2) prostate cells treated with synthetic lunasin were assessed using microarray analysis.

[10] = tested on: non-tumorigenic prostate epithelial cell line (RWPE-1); assay: as above; type: cell-based, human
Procedure: as §5, §6

[11] = tested on: p21/WAF1/Cip1 in NIH 3T3 cells; details: NIH 3T3 cells pre-treated 24 h, eight days after E1A transfection; cited from earlier work
[12] = acid-extracted core histones, 2 μM lunasin
[13] = basal acid-extracted core histones, 2 μM lunasin
[14] = lunasin-treated acid-extracted core histones, 2 μM lunasin
[15] = recombinant H4, same in lunasin-treated and non-treated
[16] = RWPE-1, 24 hour exposure to 2 micromolar lunasin

lunasin: 43 amino acid small subunit of a soybean 2S albumin; residues 22-64 of SEQ ID NO:2 of U.S. Pat. No. 6,544,956; used as synthetic peptide
H4-Lys 5 acetylation by pCAF ([1]; acid-extracted core histones): did not reduce
inhibition of H4-Lys 8 acetylation by PCAF ([1]; basal acid-extracted core histones): 33%
skin tumorigenesis (female SENCAR mice): inhibited skin tumorigenesis
H4-Lys16 acetylation at THBS gene (ChIP PCR) [2]: significant increase
reduction of foci formation [3]: 70%
THBS protein level (Western blot) (thrombospondin (THBS); non-tumorigenic RWPE-1 cell line): upregulated
THBS protein level (Western blot) (thrombospondin (THBS); tumorigenic RWPE-2 prostate cells): silenced
UGT1A1 protein levels (Western blot) ([4]; 10 uM lunasin): upregulates
UGT1A1 expression (RT-PCR) ([4]; 10 μM lunasin): significant upregulation
UGT1A3 expression (RT-PCR) ([4]; 10 μM lunasin): significant upregulation
UGT1A6 expression (RT-PCR) ([4]; 10 μM lunasin): significant upregulation
UGT1A10 expression (RT-PCR) ([4]; 10 μM lunasin): significant upregulation
H4-Lys12 acetylation by p300 [5, 12]: did not reduce
inhibition of H4-Lys 8 acetylation by p300 [5, 13]: 23.5%
increase in H4-Lys16 acetylation by p300 [5, 14]: 22%
Lys16 acetylation by p300, recombinant H4 as substrate [5, 15]: loss of Lys16 acetylation
H4-Lys 5 acetylation by Hat1 [6, 12]: did not reduce
H4-Lys12 acetylation by Hat1 [6, 12]: did not reduce
inhibition of H4-Lys 8 acetylation by Hat1 [6, 13]: 30%
increase in H4-Lys16 acetylation by Hat1 [6, 14]: 30%
Lys16 acetylation by Hat1, recombinant H4 as substrate [6, 15]: loss of Lys16 acetylation
foci formation [7]: suppress foci formation
binding preference for histone H4 (deacetylated histone H4): preferentially binds to deacetylated histone H4
apoptosis [8]: induce apoptosis
Genes up-regulated (greater than twofold change) ([9]; RWPE-2, 2 μM lunasin for 24 hours, 14500 genes interrogated): only two genes were up-regulated
Genes down-regulated ([9]; tumorigenic epithelial cells, 2 μM lunasin): No genes were down-regulated
Number of genes up-regulated (greater than twofold change) ([10]; RWPE-1, 2 μM lunasin for 24 hours, 14500 genes interrogated): 121 genes
Fold-change BNIP3, NIP3 [10, 16]: 2.05
Fold-change BUB1B, BUBR1 [10, 16]: 2.23
Fold-change ERBB2IP, ERBIN [10, 16]: 2.23
Fold-change MAD2L1 [10, 16]: 2.12
Fold-change PORIMIN [10, 16]: 2.26
Fold-change PRKAR1A, PKA [10, 16]: 2.45
Fold-change PRKCL2, PRK2 [10, 16]: 2.33
Fold-change PSMC6 [10, 16]: 2.58
Fold-change RANBP2 [10, 16]: 2.36
Fold-change SMURF2 [10, 16]: 2.29
Fold-change SPTLC1 [10, 16]: 2.12
Fold-change THBS1, TSP1 [10, 16]: 2.05
Fold-change TOB1 [10, 16]: 2.32
Fold-change TTK [10, 16]: 2.08
Fold-change UBE1C [10, 16]: 2.15
Fold-change USP1 [10, 16]: 2.23
SP3 expression in microarray ([10]; at 24 hours): upregulated
Genes down-regulated ([10]; non-tumorigenic epithelial cells, 2 μM lunasin): No genes were down-regulated
p21/WAF1/Cip1 expression in microarray ([10]; within 24 hours): did not show upregulation
increase in p21/WAF1/Cip1 protein levels [11]: five-fold increase
